In patent US10000476B2, “Pyridone derivative, pharmaceutical containing the same and methods of use thereof” (KAKEN PHARMACEUTICAL CO., LTD., priority 2011, dated 2018):

molecular target: TACE (Homo sapiens (Human), UniProt P78536); assay: TACE inhibition test (in vitro); type: biochemical; conditions: fluorescent synthetic substrate, 37° C., 1.5 hours
Procedure: The nucleotide sequence of TACE has been reported by Moss et al. (Moss, M. L. et al., Nature 1997, 385, 733-736). Accordingly, the cDNA of TACE was obtained according to the prescribed method from THP-1 cells or the like, and then incorporated the cDNA into an expression vector. Next, this vector was transformed into mammalian cells or insect cells, and TACE expression was obtained.
The TACE inhibition test was carried out by measuring TACE activity in the presence and the absence of the test substance using the thus-obtained TACE as an enzyme, and a fluorescent synthetic substrate Nma(N-methylanthranilic acid)-Leu-Ala-Gln-Ala-Val-Arg-Ser-Ser-Lys(Dnp(dinitrophenyl))-D-Arg-NH2 (SEQ ID NO: 1) including the TACE-cleaved sequence of a membrane-bound TNF as a substrate. The TACE inhibition test method is shown below.
Namely, 90 μL of an enzyme solution prepared with an assay buffer A (50 mM tris-hydrochloric acid buffer (pH 7.5) including 200 mM sodium chloride, 5 mM calcium chloride, 10 μM zinc sulfate, and 2 mg/mL bovine serum albumin) and 90 μL of a fluorescent synthetic substrate prepared with an assay buffer B (50 mM tris-hydrochloric acid buffer (pH 7.5) including 200 mM sodium chloride, 5 mM calcium chloride, 10 μM zinc sulfate, and 0.05% PLURONIC F-68) were mixed together, and reacted at 37° C. for 1.5 hours. Enzyme activity was then determined by measuring with a fluorescence intensity meter (Labsystems, Fluoroskan Ascent) at an excitation wavelength of 355 nm and a measurement wavelength of 460 nm.
From the enzyme activity in the presence or the absence of the test substance, the inhibition rate was determined, and the 50% inhibitiory concentration (IC50) of the test substance was calculated.

TACE, sequence (P78536 215-824): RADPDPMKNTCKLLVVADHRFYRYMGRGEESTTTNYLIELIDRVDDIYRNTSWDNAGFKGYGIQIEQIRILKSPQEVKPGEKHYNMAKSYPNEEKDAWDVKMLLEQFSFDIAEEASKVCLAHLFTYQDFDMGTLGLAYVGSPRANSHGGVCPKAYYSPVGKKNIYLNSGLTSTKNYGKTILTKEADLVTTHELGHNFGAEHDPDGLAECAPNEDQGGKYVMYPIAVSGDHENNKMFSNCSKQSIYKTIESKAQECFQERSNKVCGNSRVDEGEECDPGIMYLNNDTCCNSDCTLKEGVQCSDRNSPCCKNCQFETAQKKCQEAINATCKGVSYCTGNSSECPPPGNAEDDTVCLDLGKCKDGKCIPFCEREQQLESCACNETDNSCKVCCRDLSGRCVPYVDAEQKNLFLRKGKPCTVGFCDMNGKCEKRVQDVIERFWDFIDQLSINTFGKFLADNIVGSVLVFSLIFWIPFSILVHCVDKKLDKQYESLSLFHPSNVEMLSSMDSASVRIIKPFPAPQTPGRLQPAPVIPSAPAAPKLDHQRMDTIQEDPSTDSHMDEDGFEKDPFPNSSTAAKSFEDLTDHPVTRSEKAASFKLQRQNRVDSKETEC

`Cc1cccn(CC2(c3ccc(Oc4ccccc4F)c(F)c3)NC(=O)NC2=O)c1=O` (stereo not shown) [Compound I-104] and `COc1ccccc1Oc1ccc(C2(Cn3cccc(C)c3=O)NC(=O)NC2=O)cc1F` (stereo not shown) [Compound I-114] cannot be ordered by IC50: less than 0.1 µM for the first, less than 0.1 µM for the second.

`Cc1cccn(CC2(c3ccc4c(c3)OCCCO4)NC(=O)NC2=O)c1=O` (stereo not shown) [Compound I-105] and `Cc1cccn(CC2(c3ccc(Cl)c(Cl)c3)NC(=O)NC2=O)c1=O` (stereo not shown) [Compound I-125] cannot be ordered by IC50: less than 0.1 µM for the first, less than 0.1 µM for the second.

`Cc1cccn(CC2(c3ccc(C#Cc4ccccc4)cc3)NC(=O)NC2=O)c1=O` (stereo not shown) [Compound I-106] and `Cc1cccn(CC2(c3ccc(C#Cc4ccccn4)cc3)NC(=O)NC2=O)c1=O` (stereo not shown) [Compound I-110] cannot be ordered by IC50: less than 0.1 µM for the first, less than 0.1 µM for the second.

`Cc1cccn(CC2(c3ccc(CCc4ccccc4)cc3)NC(=O)NC2=O)c1=O` (stereo not shown) [Compound I-107] and `Cc1cccn(CC2(c3ccc(CCc4ccccn4)cc3)NC(=O)NC2=O)c1=O` (stereo not shown) [Compound I-115] cannot be ordered by IC50: less than 0.1 µM for the first, less than 0.1 µM for the second.

`C=C(C)c1ccc(C2(Cn3cccc(C)c3=O)NC(=O)NC2=O)cc1` (stereo not shown) [Compound I-108] and `Cc1cccn(CC2(c3ccc(C(C)C)cc3)NC(=O)NC2=O)c1=O` (stereo not shown) [Compound I-117] cannot be ordered by IC50: less than 0.1 µM for the first, less than 0.1 µM for the second.

`Cc1cccn(CC2(c3ccc(/C=C/C4CCCCC4)cc3)NC(=O)NC2=O)c1=O` (stereo not shown) [Compound I-109] and `Cc1cccn(CC2(c3ccc(CCC4CCCCC4)cc3)NC(=O)NC2=O)c1=O` (stereo not shown) [Compound I-118] fall in the same range of IC50: 0.1 to 1 µM for the first, 0.1 to 1 µM for the second.

`Cc1cccn(CC2(c3ccc(Oc4ccc(F)cc4)c(F)c3)NC(=O)NC2=O)c1=O` (stereo not shown) [Compound I-111] and `Cc1cccn(CC2(c3ccc(Oc4cccc(F)c4)c(F)c3)NC(=O)NC2=O)c1=O` (stereo not shown) [Compound I-112] cannot be ordered by IC50: less than 0.1 µM for the first, less than 0.1 µM for the second.

`COc1ccccc1Oc1ccc(C2(Cn3cccc(C)c3=O)NC(=O)NC2=O)cc1` (stereo not shown) [Compound I-113] and `Cc1cccn(CC2(c3ccc(Oc4ccccc4)c(Cl)c3)NC(=O)NC2=O)c1=O` (stereo not shown) [Compound I-123] cannot be ordered by IC50: less than 0.1 µM for the first, less than 0.1 µM for the second.

`CCc1ccc(C2(Cn3cccc(C)c3=O)NC(=O)NC2=O)cc1` (stereo not shown) [Compound I-116] and `Cc1cccn(CC2(c3ccc(CC(C)C)cc3)NC(=O)NC2=O)c1=O` (stereo not shown) [Compound I-121] cannot be ordered by IC50: less than 0.1 µM for the first, less than 0.1 µM for the second.

`CCOc1ccc(C2(Cn3cccc(C)c3=O)NC(=O)NC2=O)cc1` (stereo not shown) [Compound I-119] and `Cc1cccn(CC2(c3ccc(OC(C)C)cc3)NC(=O)NC2=O)c1=O` (stereo not shown) [Compound I-120] cannot be ordered by IC50: less than 0.1 µM for the first, less than 0.1 µM for the second.

`Cc1cccn(CC2(c3ccc(Oc4cccnc4)c(F)c3)NC(=O)NC2=O)c1=O` (stereo not shown) [Compound I-122] and `Cc1cccn(CC2(c3ccc(F)c(Cl)c3)NC(=O)NC2=O)c1=O` (stereo not shown) [Compound I-126] cannot be ordered by IC50: less than 0.1 µM for the first, less than 0.1 µM for the second.

`Cc1cccn(CC2(c3ccc(OC4CCCC4)cc3)NC(=O)NC2=O)c1=O` (stereo not shown) [Compound I-124] and `Cc1cc(C2(Cn3cccc(C)c3=O)NC(=O)NC2=O)ccc1OC1CCCCC1` (stereo not shown) [Compound I-131] cannot be ordered by IC50: less than 0.1 µM for the first, less than 0.1 µM for the second.

`COc1cc(C2(Cn3cccc(C)c3=O)NC(=O)NC2=O)cc(F)c1F` (stereo not shown) [Compound I-127] and `Cc1ccc(C2(Cn3cccc(C)c3=O)NC(=O)NC2=O)c(F)c1F` (stereo not shown) [Compound I-128] cannot be ordered by IC50: less than 0.1 µM for the first, less than 0.1 µM for the second.

`O=C1NC(=O)C(Cn2cccc(F)c2=O)(c2ccccc2)N1` (stereo not shown) [Compound I-132] and `O=C1NC(=O)C(Cn2cccc(Br)c2=O)(c2ccccc2)N1` (stereo not shown) [Compound I-139] cannot be ordered by IC50: less than 0.1 µM for the first, less than 0.1 µM for the second.

`COc1ccc(C2(Cn3cccc(F)c3=O)NC(=O)NC2=O)cc1` (stereo not shown) [Compound I-133] and `COc1ccc(C2(Cn3cccc(Cl)c3=O)NC(=O)NC2=O)cc1` (stereo not shown) [Compound I-137] cannot be ordered by IC50: less than 0.1 µM for the first, less than 0.1 µM for the second.

`N#Cc1ccc(C2(Cn3cccc(F)c3=O)NC(=O)NC2=O)cc1` (stereo not shown) [Compound I-134] and `N#Cc1ccc(C2(Cn3cccc(Cl)c3=O)NC(=O)NC2=O)cc1` (stereo not shown) [Compound I-138] cannot be ordered by IC50: less than 0.1 µM for the first, less than 0.1 µM for the second.

`O=C1NC(=O)C(Cn2cccc(F)c2=O)(c2ccc3ccccc3c2)N1` (stereo not shown) [Compound I-135] and `O=C1NC(=O)C(Cn2cccc(F)c2=O)(c2ccc(Cc3ccccc3)cc2)N1` (stereo not shown) [Compound I-152] cannot be ordered by IC50: less than 0.1 µM for the first, less than 0.1 µM for the second.

`O=C1NC(=O)C(Cn2cccc(Cl)c2=O)(c2ccc(F)cc2)N1` (stereo not shown) [Compound I-136] and `O=C1NC(=O)C(Cn2cccc(Cl)c2=O)(c2ccc(F)c(F)c2)N1` (stereo not shown) [Compound I-146] cannot be ordered by IC50: less than 0.1 µM for the first, less than 0.1 µM for the second.

`O=C1NC(=O)C(Cn2cccc(C(F)(F)F)c2=O)(c2ccccc2)N1` (stereo not shown) [Compound I-140] and `COc1ccc(C2(Cn3cccc(C(F)(F)F)c3=O)NC(=O)NC2=O)cc1` (stereo not shown) [Compound I-141] cannot be ordered by IC50: less than 0.1 µM for the first, less than 0.1 µM for the second.

`N#Cc1ccc(C2(Cn3cccc(C(F)(F)F)c3=O)NC(=O)NC2=O)cc1` (stereo not shown) [Compound I-142] and `O=C1NC(=O)C(Cn2cccc(F)c2=O)(c2ccc(F)c(F)c2)N1` (stereo not shown) [Compound I-145] cannot be ordered by IC50: less than 0.1 µM for the first, less than 0.1 µM for the second.

`COc1cccn(CC2(c3ccccc3)NC(=O)NC2=O)c1=O` (stereo not shown) [Compound I-143] and `C=C(C)c1cccn(CC2(c3ccc(OC)cc3)NC(=O)NC2=O)c1=O` (stereo not shown) [Compound I-144] fall in the same range of IC50: 0.1 to 1 µM for the first, 0.1 to 1 µM for the second.

Compared with `O=C1NC(=O)C(Cn2cccc(Br)c2=O)(c2ccc(F)c(F)c2)N1` (stereo not shown) [Compound I-147], `O=C1NC(=O)C(Cn2cccc(CO)c2=O)(c2ccc(F)c(F)c2)N1` (stereo not shown) [Compound I-148] is higher in IC50: less than 0.1 µM for the first, 0.1 to 1 µM for the second. The first is the more potent here.

`O=C1NC(=O)C(Cn2cccc(Br)c2=O)(c2ccc(Cc3ccccc3)cc2)N1` (stereo not shown) [Compound I-149] and `O=C1NC(=O)C(Cn2cccc(Cl)c2=O)(c2ccc(Cc3ccccc3)cc2)N1` (stereo not shown) [Compound I-150] cannot be ordered by IC50: less than 0.1 µM for the first, less than 0.1 µM for the second.

`O=C1NC(=O)C(Cn2cccc(CO)c2=O)(c2ccc(Cc3ccccc3)cc2)N1` (stereo not shown) [Compound I-151] and `O=C1NC(=O)C(Cn2ccccc2=O)(c2ccc(Cc3ccccc3)cc2)N1` (stereo not shown) [Compound I-156] fall in the same range of IC50: 0.1 to 1 µM for the first, 0.1 to 1 µM for the second.

`Cc1cccn(CC2(c3cccc(F)c3F)NC(=O)NC2=O)c1=O` (stereo not shown) [Compound I-153] and `Cc1cccn(CC2(c3cc(F)ccc3F)NC(=O)NC2=O)c1=O` (stereo not shown) [Compound I-154] cannot be ordered by IC50: less than 0.1 µM for the first, less than 0.1 µM for the second.

`O=C1NC(=O)C(Cn2ccccc2=O)(c2ccc(F)c(F)c2)N1` (stereo not shown) [Compound I-155] and `O=C1NC(=O)C(Cn2ccccc2=O)(c2cc(F)c(F)c(F)c2)N1` (stereo not shown) [Compound I-157] cannot be ordered by IC50: less than 0.1 µM for the first, less than 0.1 µM for the second.
